Reference: patent US6375672B1, “Method for controlling the chemical and heat induced responses of collagenous materials” (Board of Trustees of Michigan State University, priority 1999, dated 2002)

Test system: rabbit patellar tendon specimen
Assay: post-denaturation tension test (stiffness) of heat-contracted tendon specimens treated with cross-linking agent
Set-up: species or system New Zealand rabbit
Conditions: FIG. 7; for stiffness increase when compared to a control without the cross-linking: then 0.1% glutaraldehyde for 15 minutes
Procedure: The achieve the above objectives, the present invention provides an in vitro testing system for developing procedures for treating joint instability problems and loose skin problems. In particular, the testing system performs a tensile test, which is a test wherein a constant rate of elongation is applied on the specimen and the resultant load is measured by a load cell; a viscoelasticity test, which is a test to determine the viscoelastic properties of the specimen; and, calculates stiffness which is the slope of elongation versus load graph. The testing system 110 is illustrated in FIG. 4 and consists of a hydrothermy cabin 120 that is attached to a universal testing machine 130, which is used to perform isothermal and isotonic heating of specimens. The hydrothermy cabin 120 provides a chamber which allows fluid to be circulated around all surfaces of specimen 123 held in between lower grip 124 and upper grip 125. Specimen 123 is secured to lower grip 124 using a fixture which is designed to keep specimen 123 at an angle to mimic anatomical loading while compensating for the offset created by the angle so as to ensure a straight line of loading. Specimen 123 is secured to upper grip 125 by a wedge-shaped fixture which is composed of two universal joints to give rotational freedom to specimen 123 to ensure that a purely uniaxial stress is created on specimen 123. The denaturation of the collagen in specimen 123 is produced by providing to hydrothermy cabin 120 high temperature saline solution 150 contained in reservoir 151 by means of high temperature saline solution supply line 152. […] The materials testing machine 130 performs a tensile test wherein a constant rate of eleongation is applied to specimen 123 and the resultant load is measured by a load cell (not shown); a viscoelasticity test wherein a constant load is applied on specimen 123 and the resultant elongation as a function of time is measured (creep test) or a constant elongation is imposed and the resulting load is measured (stress relaxation test) as a function of time. […]

O=CCCCC=O [glutaraldehyde]
stiffness of the specimen (15 minutes of 0.1% glutaraldehyde following heat treatment of either 75° C. or 80° C.): increased | stiffness increase when compared to a control without the cross-linking (heat treatment 75° C., 0.5 MPa load): more than 220% | stiffness increase when compared to a control without the cross-linking (heat treatment 80° C., 0.6 MPa load): more than 130%
